# Source: patent US8067424B2, “Selective inhibitors for cyclin-dependent kinases” (Emory University, priority 2007, dated 2011)
# Read-outs that look alike come from different tables or passages of the source.
# Tests used:
# CAMKKα = CAMKKα (Homo sapiens, UniProt Q8N5S9); assay: Kinase screen: CAMKKa assay; assay type: biochemical; details: read-out: Mean Remaining Enzyme Activity (%)
# Method: (§1) Generally, the same procedure was used for all assays. Since the total assay volume was 25.5 microliters, 0.5 microliters of inhibitors at 51× assay concentration were added to the plates before any other addition.
# (§2) The basic procedure was to add 0.5 microliters inhibitor/control in DMSO to plate. Fifteen microliters of enzyme/substrate/buffer mix were added and incubated for 5 min. Ten microliters MgATP at the relevant concentration were added and incubated for 30 min. The assay was stopped by adding 5 microliters of 3% orthophosphoric acid. The assay was transferred to a p81 filter plate and read in a scintillation counter of 30 sec/well. Note that this assay procedure was not followed for MKK1, which instead involved a two-step assay, and PKC alpha, which required the addition of lipid vesicles.
# CAMKKa assay: 5-20 mU of CAMKKa (diluted in 50 mM Tris (pH 7.5), 0.1 mM EGTA, 1 mg/ml BSA, 0.1%, b-Mercaptoethanol) was assayed against substrate peptide ([…]) (SEQ ID NO: 31) in a final volume of 25.5 μl containing 50 mM Tris (pH 7.5), 0.1 mM EGTA, 0.5 mM CaCl2, 0.3 μM calmodulin, 0.1%, b-Mercaptoethanol, 300 μM substrate peptide, 10 mM magnesium acetate and 0.02 mM [33P-g-ATP] (500-1000 cpm/pmole) and incubated for 30 mins at room temperature. Assays were stopped by addition of 5 μl of 0.5M (3%) orthophosphoric acid. […]
# AURORA C = AURORA C (Homo sapiens, UniProt Q9UQB9); assay: Kinase screen: Aurora C assay; assay type: biochemical; details: read-out: Mean Remaining Enzyme Activity (%)
# Method: as §1, §2
# Aurora C assay: Aurora C (5-20 mU diluted in 50 mM Tris pH 7.5, 0.1 mM EGTA, 0.1% b-mercaptoethanol, 1 mg/ml BSA) was assayed against a substrate peptide ([…]) (SEQ ID NO: 26) in a final volume of 25.5 μl containing 50 mM Tris pH 7.5, 0.05% b-mercaptoethanol, 300 μM substrate peptide, 10 mM magnesium acetate and 0.005 mM [33P-g-ATP] (50-1000 cpm/pmole) and incubated for 30 min at room temperature. Assays were stopped by addition of 5 μl of 0.5 M (3%) orthophosphoric acid and then harvested onto P81 Unifilter plates with a wash buffer of 50 mM orthophosphoric acid.
# A549/ATCC = details: for Mean Optical Densities / Percent Growth: A549/ATCC
# EKVX = assay: cells; details: Homo sapiens
# SW-620 = assay: cells; details: Homo sapiens
# U251 = assay: cells; details: Homo sapiens
# A498 = assay: cells; details: Homo sapiens
# RXF 393 = assay: cells; details: Homo sapiens
# DU-145 = assay: cells; details: Homo sapiens
# NCI/ADR-RES = assay: cells; details: Homo sapiens
# [1] = HOP-62, log10 concentration −4.0
# [2] = HOP-62, log10 concentration −5.0
# [3] = HOP-62, log10 concentration −6.0
# [4] = HOP-62, log10 concentration −7.0
# [5] = HOP-62, log10 concentration −8.0
# [6] = IGROV1, log10 concentration −4.0
# [7] = IGROV1, log10 concentration −5.0
# [8] = IGROV1, log10 concentration −6.0
# [9] = IGROV1, log10 concentration −7.0
# [10] = IGROV1, log10 concentration −8.0
# Sequence of AURORA C (Q9UQB9 whole entry): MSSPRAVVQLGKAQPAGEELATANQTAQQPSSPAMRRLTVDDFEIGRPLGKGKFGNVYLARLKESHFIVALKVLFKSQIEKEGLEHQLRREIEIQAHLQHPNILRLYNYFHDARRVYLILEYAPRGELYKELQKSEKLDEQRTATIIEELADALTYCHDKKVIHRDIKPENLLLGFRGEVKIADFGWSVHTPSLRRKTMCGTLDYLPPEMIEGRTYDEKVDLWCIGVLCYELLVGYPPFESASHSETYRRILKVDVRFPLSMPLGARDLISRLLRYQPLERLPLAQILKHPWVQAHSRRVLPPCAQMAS
structure (smiles),measurement,setting,value
CC(C)c1cnn2c(NCc3ccccc3)cc(NCCCCCCCN)nc12 [BS-181],remaining activity at 10 µM,CAMKKα,57%
same,remaining activity at 10 µM,AURORA C,98%
"CC(C)c1cnn2c(NCc3ccccc3)cc(N[C@@H](CO)[C@H](O)CO)nc12 [ICEC0318, (3S)-3-(7-(Benzylamino)-3-isopropylpyrazolo[1,5-a]pyrimidin-5-ylamino)butane-1,2,4-triol]",TGI,A549/ATCC; A549/ATCC (Non-Small Cell Lung Cancer),>1.00E−4
same,Mean Optical Densities,A549/ATCC; log10 concentration −4.0,0.346
same,Percent Growth,A549/ATCC; log10 concentration −4.0,4%
same,Mean Optical Densities,A549/ATCC; log10 concentration −5.0,0.417
same,Percent Growth,A549/ATCC; log10 concentration −5.0,10%
same,Mean Optical Densities,A549/ATCC; log10 concentration −6.0,0.422
same,Percent Growth,A549/ATCC; log10 concentration −6.0,11%
same,Mean Optical Densities,A549/ATCC; log10 concentration −7.0,1.369
same,Percent Growth,A549/ATCC; log10 concentration −7.0,94%
same,Mean Optical Densities,A549/ATCC; log10 concentration −8.0,1.447
same,Percent Growth,A549/ATCC; log10 concentration −8.0,101%
same,TGI,HOP-62; HOP-62 (Non-Small Cell Lung Cancer),7.68E−7
same,Mean Optical Densities,HOP-62; [1],0.336
same,Percent Growth,HOP-62; [1],−28%
same,Mean Optical Densities,HOP-62; [2],0.393
same,Percent Growth,HOP-62; [2],−15%
same,Mean Optical Densities,HOP-62; [3],0.412
same,Percent Growth,HOP-62; [3],−12%
same,Mean Optical Densities,HOP-62; [4],1.165
same,Percent Growth,HOP-62; [4],89%
same,Mean Optical Densities,HOP-62; [5],1.312
same,Percent Growth,HOP-62; [5],107%
same,TGI,IGROV1; IGROV1 (Ovarian Cancer),>1.00E−4
same,Mean Optical Densities,IGROV1; [6],0.451
same,Percent Growth,IGROV1; [6],4%
same,Mean Optical Densities,IGROV1; [7],0.510
same,Percent Growth,IGROV1; [7],10%
same,Mean Optical Densities,IGROV1; [8],0.528
same,Percent Growth,IGROV1; [8],12%
same,Mean Optical Densities,IGROV1; [9],1.088
same,Percent Growth,IGROV1; [9],68%
same,Mean Optical Densities,IGROV1; [10],1.429
same,Percent Growth,IGROV1; [10],103%
same,GI50,EKVX,286 nM
same,CC50,EKVX; read-out: LC50,> 100000 nM
same,GI50,SW-620; SW-620,285 nM
same,CC50,"SW-620; SW-620, read-out: LC50",> 100000 nM
same,GI50,U251; U-251,261 nM
same,CC50,"U251; U-251, read-out: LC50",> 100000 nM
same,GI50,A498; A498,235 nM
same,CC50,"A498; A498, read-out: LC50",993 nM
same,GI50,RXF 393; RXF 393,213 nM
same,CC50,"RXF 393; RXF 393, read-out: LC50",54600 nM
same,GI50,DU-145; DU-145,377 nM
same,CC50,"DU-145; DU-145, read-out: LC50",> 100000 nM
same,GI50,NCI/ADR-RES,2040 nM
same,CC50,NCI/ADR-RES; read-out: LC50,> 100000 nM
